Like-named read-outs stand apart in the source and are kept apart here.
Test system: human peripheral blood mononuclear cells (PBMCs)
Assay: ELISA assay of immunocyte activator: induction of IFN-γ in human PBMCs
Format: cell-based
Conditions: 24 h, 37 °C, read-out: EC50 IFN-γ ratio (inducing human PBMCs to produce IFN-γ)
Experimental: The immune activity of each compound is represented by the function of inducing human peripheral blood mononuclear cells (PBMCs) to produce the immune cytokine IFN-γ by, and the EC50 values thereof are shown in Table 3.
• 1) Peripheral blood samples from healthy human volunteer were collected into heparin anticoagulant tubes to reach 5 mL of fresh blood, and PBS was added at a ratio of 1:1 to dilute the blood (2 mL+2 mL in conventional blood collection tubes). • 2) 5 mL of lymphocyte separation medium was put in a 15 mL sterile centrifuge tube for use. • 3) The diluted blood was aspirated and slowly added from 1 cm above the separation medium along the tube wall, so that the diluted blood overlaid the separation medium and formed a distinct interface therewith. • 4) The centrifuge tube was centrifuged at 2000 rpm at room temperature for 20 min. Now five layers formed in the centrifuge tube: the top layer was plasma layer, and the layer between the plasma layer and the lymphocyte separation medium was the lymphocyte layer as a white film. • 5) The mononuclear cell layer as a white film in the middle was aspirated carefully and mononuclear cells were aspirated as many as possible. The mononuclear cells were washed by more than 5 volumes of PBS twice, and each time, the mononuclear cells were centrifuged at 1500 rpm for 10 min. • 6) The supernatant was removed, then 1 mL of 1640 medium was added and mixed uniformly. A small amount of the mixture was taken for cell counting.
The prepared PBMCs were plated in a 96-well plate (Costar, 3894) (2×10^5 cells per well). Each compound in Table 3 was taken and added into the wells with plated cells at ten concentrations with uniform gradient distribution (0.0001-10 μM, diluted with […] medium containing […]).

[1] = Homo sapiens, PBMC, no pretreatment marked
[2] = Note a: sample pretreated with human liver microsomal enzyme, 2 h

| SMILES | EC50 [1] | other results |
| --- | --- | --- |
| C#CCCCCC(NC(=O)CCC(=O)NCc1ccc(Cn2c(=O)[nH]c3c(N)nc(OCCOC)nc32)cc1)C(=O)O (centres unmarked) [SZU-115, reference compound] | – | EC50 (no pretreatment marked, listed as GY115, 1440 min): 300 nM |
| CCOC(=O)NC(=O)n1c(=O)n(Cc2ccc(CNC(=O)CCc3cn(CCOCCOCCOCCNC(=O)CCN4C(=O)C=CC4=O)nn3)cc2)c2nc(OCCOC)nc(N)c21 [Compound K14] | – | EC50 (Homo sapiens, PBMC, Note a: sample pretreated with human liver microsomal enzyme, 2 h): 10 nM |
| CC[C@@]1(O)C(=O)OCc2c1cc1n(c2=O)Cc2c-1nc1cc(F)c(C)c3c1c2[C@@H](NC(=O)CNC(=O)OCn1c(=O)n(Cc2ccc(CNC(=O)CCc4cn(CCOCCOCCOCCNC(=O)CCN5C(=O)C=CC5=O)nn4)cc2)c2nc(OCCOC)nc(N)c21)CC3 [Compound K42] | – | EC50 (Homo sapiens, PBMC, Note d: sample pretreated by hydrolysis, acetate buffer pH 5, 37 °C, 72 h): 7 nM |
| C#CCCCn1c(=O)[nH]c2c(N)nc(OCCCC)nc21 [GY121, reference compound] | 50 nM | – |
| CCCCOc1nc(N)c2c(n1)n(CC1CCN(C(=O)/C=C/C(=O)c3ccc(OC)cc3)CC1)c(=O)n2C(=O)NCCNC(=O)OCc1ccc(NC(=O)[C@H](CCCNC(N)=O)NC(=O)[C@@H](NC(=O)CCOCCOCCOCCOCCNC(=O)CCC(=O)N2Cc3ccccc3C#Cc3ccccc32)C(C)C)cc1 [Compound K58] | – | EC50 [2]: 9 nM |
| CCCCOc1nc(N)c2[nH]c(=O)n(Cc3cn(CCOCCOCCOCC(=O)N[C@H](CCCCNC(=O)OCc4ccc(NC(=O)[C@H](CCCNC(N)=O)NC(=O)[C@@H](NC(=O)CCCCCN5C(=O)C=CC5=O)C(C)C)cc4)C(=O)NCCOCCOCCOCCOCCNC(=O)CCC(=O)N4Cc5ccccc5C#Cc5ccccc54)nn3)c2n1 [Compound K7] | 45 nM | – |
| C=C(CC)C(=O)c1ccc(OCC(=O)NCc2ccc(Cn3c(=O)n(COC(=O)OCc4ccc(NC(=O)[C@H](C)NC(=O)[C@@H](NC(=O)CCOCCOCCOCCOCCNC(=O)CCC(=O)N5Cc6ccccc6C#Cc6ccccc65)C(C)C)cc4)c4c(N)nc(OCCOC)nc43)cc2)c(Cl)c1Cl [Compound K60] | – | EC50 [2]: 90 nM |
| C=C(CN1CCC(n2cc(Cn3c(=O)[nH]c4c(N)nc(O[C@@H](C)CCC)nc43)nn2)CC1)C(=O)O [GY300] | 31 nM | – |
| CCCCOc1nc(N)c2[nH]c(=O)n(Cc3cn(CCOCCOCCOCC(=O)N[C@H](CCCCN=[N+]=[N-])C(=O)O)nn3)c2n1 [Compound 102-N3] | 180 nM | – |
| C=C(CN1CCC(Cn2c(=O)[nH]c3c(N)nc(OCCCC)nc32)CC1)C(=O)NCCOCCOCCOCCOCCNC(=O)CCC(=O)N1Cc2ccccc2C#Cc2ccccc21 [Compound K50] | 23 nM | – |
| COCCOc1nc(N)c2[nH]c(=O)n(Cc3ccc(CNC(=O)CCC(=O)NC(CCCCc4cn(CCOCCOCCOCCNC(=O)CCOCCOCCNC(=O)OCC5C6CCC#CCCC65)nn4)C(=O)N[C@H](C(=O)N[C@@H](CCCNC(N)=O)C(=O)Nc4ccc(COC(=O)NC[C@H](C)c5ccc(-c6c(O)cc(C)c7[nH]c(=O)c8sccc8c67)cc5)cc4)C(C)C)cc3)c2n1 (some centres unmarked) [Compound K31] | 29 nM | – |
| C=CC(=O)Nc1cc(Nc2nccc(-c3cn(C)c4ccccc34)n2)c(OC)cc1N(C)CCN(C)CCCCCCNC(=O)C(CCCCNC(=O)OCc1ccc(NC(=O)[C@H](CCCNC(N)=O)NC(=O)[C@@H](NC(=O)CCOCCOCCOCCOCCNC(=O)CCC(=O)N2Cc3ccccc3C#Cc3ccccc32)C(C)C)cc1)NC(=O)CCC(=O)NCc1ccc(Cn2c(=O)[nH]c3c(N)nc(OCCOC)nc32)cc1 (some centres unmarked) [Compound K37] | – | EC50 (no pretreatment marked): 220 nM |
| CCCCOc1nc(N)c2nc(O)n(Cc3cn(CCOCCOCCOCCN=[N+]=[N-])nn3)c2n1 [GY155, reference compound] | – | EC50 (no pretreatment marked): 330 nM |
| C=C(CN1CCC(Cn2c(=O)n(C(=O)NCCNC(=O)OCc3ccc(NC(=O)[C@H](CCCNC(N)=O)NC(=O)[C@@H](NC(=O)CCOCCOCCOCCOCCNC(=O)CCC(=O)N4Cc5ccccc5C#Cc5ccccc54)C(C)C)cc3)c3c(N)nc(OCCCC)nc32)CC1)C(=O)OCC [Compound K52] | – | EC50 [2]: 120 nM |
| CCC[C@H](C)Oc1nc(N)c2[nH]c(=O)n(CC3CCNCC3)c2n1 [KJ-1b, reference compound] | 18 nM | – |
| CCCCOc1nc(N)c2c(n1)N(Cc1cn(CCNC(=O)OCc3ccc(NC(=O)[C@H](CCCNC(N)=O)NC(=O)[C@@H](NC(=O)CCOCCOCCOCCOCCN(CCOCCOCCOCCOCCC(=O)N[C@H](C(=O)N[C@@H](CCCNC(N)=O)C(=O)Nc4ccc(COC(=O)NCCn5cc(Cn6c(=O)[nH]c7c(N)nc(OCCCC)nc76)nn5)cc4)C(C)C)C(=O)CCN4C(=O)C=CC4=O)C(C)C)cc3)nn1)C(=O)C2 [Compound K22] | – | EC50 (Homo sapiens, PBMC, Note c: sample pretreated with Cathepsin-B (10 μg) in PBS, room temperature, 3 h): 80 nM |

| SMILES | EC50 [1] | other results |
| --- | --- | --- |
| C=C(CN1CCC(n2cc(Cn3c(=O)[nH]c4c(N)nc(O[C@@H](C)CCC)nc43)nn2)CC1)C(=O)NCCOCCOCCOCCOCCNC(=O)CCC(=O)N1Cc2ccccc2C#Cc2ccccc21 [Compound K54] | 18 nM | – |
| C=C(CN1CCC(Cn2c(=O)[nH]c3c(N)nc(O[C@@H](C)CCC)nc32)CC1)C(=O)NCCOCCOCCOCCOCCNC(=O)CCC(=O)N1Cc2ccccc2C#Cc2ccccc21 [Compound K49] | 11 nM | – |
| C=C(CN1CCC(n2cc(Cn3c(=O)[nH]c4c(N)nc(O[C@@H](C)CCC)nc43)nn2)CC1)C(=O)OCC [GY229] | 28 nM | – |
| COCCOc1nc(N)c2[nH]c(=O)n(Cc3ccc(CNC(=O)CCC(=O)NC(CCCCNC(=O)OCc4ccc(NC(=O)[C@H](CCCNC(N)=O)NC(=O)[C@@H](NC(=O)CCCCCN5C(=O)C=CC5=O)C(C)C)cc4)C(=O)NCCOCCOCCOCCOc4ccc(-c5nnc(C)nn5)cc4)cc3)c2n1 (some centres unmarked) [Compound K29] | 31 nM | – |
| C=C(CC)C(=O)c1ccc(OCC(=O)NCc2ccc(Cn3c(=O)[nH]c4c(N)nc(OCCOC)nc43)cc2)c(Cl)c1Cl [SZU-103, reference compound] | 100 nM | – |
| COCCOc1nc(N)c2[nH]c(=O)n(Cc3ccc(CNC(=O)CCC(=O)NC(CCCCc4cn(CCOCCOCCOCCNC(=O)CCN5C(=O)C=CC5=O)nn4)C(=O)NCCOCCOCCOCCOc4ccc(-c5nnc(C)nn5)cc4)cc3)c2n1 (centres unmarked) [Compound K25] | 5 nM | – |
| COCCOc1nc(N)c2[nH]c(=O)n(Cc3ccc(CNC(=O)CCc4cn(CCOCCOCCOCCN(CCOCCOCCOCCn5cc(CCC(=O)NCc6ccc(Cn7c(=O)[nH]c8c(N)nc(OCCOC)nc87)cc6)nn5)C(=O)OCc5ccc(NC(=O)[C@H](CCCNC(N)=O)NC(=O)[C@@H](CC(=O)NCOCCOCCOCCN=[N+]=[N-])C(C)C)cc5)nn4)cc3)c2n1 [Compound K23] | 30 nM | – |
| C=C(CN1CCC(Cn2c(=O)[nH]c3c(N)nc(O[C@@H](C)CCC)nc32)CC1)C(=O)OCC [KJ-096] | 3 nM | – |
| CCCCOc1nc(N)c2[nH]c(=O)n(Cc3ccc(NC(=S)Nc4sc5c(c4C(=O)O)CCCC5)cc3)c2n1 [KJ006] | 290 nM | – |
| C=C(CC(=O)OC)C(=O)NCc1ccc(Cn2c(=O)[nH]c3c(N)nc(OCCOC)nc32)cc1 [SZU-275] | 1 nM | – |
| C=CC(=O)N1CCN(c2ncnc3c(F)c(-c4c(F)cccc4OCCc4cn(CCCNc5nc(NCCOCCOCCOCCNC(=O)CCC(=O)NCc6ccc(Cn7c(=O)[nH]c8c(N)nc(OCCOC)nc87)cc6)nc(N6CCC(CNC(=O)OCc7ccc(NC(=O)[C@H](CCCNC(N)=O)NC(=O)[C@@H](NC(=O)CCOCCOCCOCCN=[N+]=[N-])C(C)C)cc7)CC6)n5)nn4)c(Cl)cc23)CC1 [Compound K21] | 6 nM | – |
| CCC[C@H](C)Oc1nc(N)c2[nH]c(=O)n(CC3CC[N+]([O-])(CCO)CC3)c2n1 (some centres unmarked) [KJ-3b-O] | 90 nM | – |
| C=C(CN1CCC(Cn2c(=O)n(C(=O)NCCNC(=O)OCc3ccc(NC(=O)[C@H](CCCNC(N)=O)NC(=O)[C@@H](NC(=O)CCOCCOCCOCCOCCNC(=O)CCC(=O)N4Cc5ccccc5C#Cc5ccccc54)C(C)C)cc3)c3c(N)nc(O[C@@H](C)CCC)nc32)CC1)C(=O)OCC [Compound K51] | – | EC50 [2]: 2 nM |
| COCCOc1nc(N)c2[nH]c(=O)n(Cc3ccc(CNC(=O)CCC(=O)NC(CCCCc4cn(CCCCN5CCN(CCCNC(=S)N6CCCC(n7nc(-c8ccc(Oc9ccccc9)cc8)c8c(N)ncnc87)C6)CC5)nn4)C(=O)N4CCN(C(=O)OCc5ccc(NC(=O)[C@H](CCCNC(N)=O)NC(=O)[C@@H](NC(=O)CCOCCOCCOCCOCCN6C(=O)C=CC6=O)C(C)C)cc5)CC4)cc3)c2n1 (some centres unmarked) [Compound K27] | 250 nM | – |
| C=CC(=O)Nc1cc(Nc2nccc(-c3cn(C)c4ccccc34)n2)c(OC)cc1N(C)CCN(C)CCCCCCNC(=O)[C@@H](CCCCn1cc(COCCOCCOCCOCCNC(=O)CCC(=O)N2Cc3ccccc3C#Cc3ccccc32)nn1)NC(=O)COCCOCCOCCn1cc(Cn2c(=O)[nH]c3c(N)nc(OCCCC)nc32)nn1 [Compound K36] | 110 nM | – |
| C=CC(=O)Nc1cc(Nc2nccc(-c3cn(C)c4ccccc34)n2)c(OC)cc1N(C)CCN(C)CCCCCCNC(=N)C(CCCCc1cn(CCOCCOCCOCCN=C=S)nn1)NC(=O)CCC(=O)NCc1ccc(Cn2c(=O)[nH]c3c(N)nc(OCCOC)nc32)cc1 (centres unmarked) [Compound K46] | 90 nM | – |

— US20260325661A1, “ANTIBODY-CONJUGATED IMMUNO-ACTIVATING SMALL MOLECULE COMPOUND, AND USE” (SHENZHEN CONJUGENIX PHARMACEUTICAL TECHNOLOGY CO., LTD, priority 2023, published 2026)
